# Assay results: US9238666B2, “Phosphoramidic acid prodrugs of 5-[5-phenyl-4-(pyridin-2-ylmethylamino)quinazolin-2-yl] pyridine-3-sulfonamide” (BRISTOL-MYERS SQUIBB COMPANY, priority 2012, dated 2016)
# Read-outs that look alike come from different tables or passages of the source.
# Key:
# [1] = Solubility at different pH conditions (equilibrium, 24 h, HPLC); assay type: physicochemical
# Experimental: Protocol for Solubility Studies of the Compounds of Instant Disclosure The solubility of the compounds of the present invention have been evaluated at various pH levels. The solubility was tested using the procedure described below. Excess amount of powder compound was equilibrated with 1 mL of buffer in a 2 mL glass vial and the dispersion of the compound in buffer ensured by vortexing, followed by sonication. The vials were shaken at 300 rpm at room temperature for 24 h. After 24 h incubation, the slurry was filtered and the filtrate analyzed by HPLC for the quantification of the solubilized fraction of compound using a four point calibration curve. Note: The incubation time was decided based on the aqueous stability data. If the compound was stable in the buffer up to 24 hrs, then the solubility was measured after 24 hrs, otherwise kinetic solubility data is reported. The solubility data at different pH conditions at 24 h (mg/mL) is provided in below Table 1.
# [2] = target: Kv1.5 channel of voltage-gated K+ channels (Homo sapiens, UniProt P22460); test: Kv1.5 channel inhibition; assay type: cell-based
# Text: Assays to determine the degree of activity of a compound as an IKur inhibitor are well known in the art and are described in references such as J. Gen. Physiol., 101(4):513-543 (April 1993), and Br. J. Pharmacol., 115(2):267-274 (May 1995).
# By displaying activity as inhibitors of the Kv1.5 channel of voltage-gated K+ channels, compounds of the present disclosure are expected to be useful in the treatment of human diseases associated with the Kv1.5 channel.
# [3] = buffer, pH 1, aqueous buffer, thermodynamic from solid, pH 1, room temperature, read-out: Solubility at 24 h
# [4] = buffer, pH 2, aqueous buffer, thermodynamic from solid, pH 2, room temperature, read-out: Solubility at 24 h
# [5] = buffer, pH 3, aqueous buffer, thermodynamic from solid, pH 3, room temperature, read-out: Solubility at 24 h
# [6] = buffer, pH 5, aqueous buffer, thermodynamic from solid, pH 5, room temperature, read-out: Solubility at 24 h
# [7] = buffer, pH 6.5, aqueous buffer, thermodynamic from solid, pH 6.5, room temperature, read-out: Solubility at 24 h
# [8] = buffer, pH 7.4, aqueous buffer, thermodynamic from solid, pH 7.4, room temperature, read-out: Solubility at 24 h
# Chain of Kv1.5 channel of voltage-gated K+ channels (P22460 whole entry): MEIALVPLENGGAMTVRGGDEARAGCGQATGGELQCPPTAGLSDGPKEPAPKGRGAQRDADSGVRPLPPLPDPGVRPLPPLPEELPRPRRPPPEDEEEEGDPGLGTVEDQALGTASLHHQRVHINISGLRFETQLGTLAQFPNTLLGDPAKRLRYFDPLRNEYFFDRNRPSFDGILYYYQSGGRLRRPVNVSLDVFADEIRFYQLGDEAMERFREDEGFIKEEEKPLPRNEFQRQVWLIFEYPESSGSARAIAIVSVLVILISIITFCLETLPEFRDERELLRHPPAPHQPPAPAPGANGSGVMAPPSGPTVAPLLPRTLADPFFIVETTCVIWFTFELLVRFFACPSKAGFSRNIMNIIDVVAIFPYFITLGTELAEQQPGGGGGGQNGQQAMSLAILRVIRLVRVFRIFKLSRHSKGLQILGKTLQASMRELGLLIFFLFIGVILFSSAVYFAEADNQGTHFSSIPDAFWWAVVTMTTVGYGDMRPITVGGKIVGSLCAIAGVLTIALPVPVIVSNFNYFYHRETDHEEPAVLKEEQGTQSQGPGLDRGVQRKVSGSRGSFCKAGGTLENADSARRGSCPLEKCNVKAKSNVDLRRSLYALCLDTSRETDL
SMILES,"Solubility at 24 h [1, 3]","Solubility at 24 h [1, 4]","Solubility at 24 h [1, 5]","Solubility at 24 h [1, 6]","Solubility at 24 h [1, 7]","Solubility at 24 h [1, 8]",IC50 [2],"Solubility at 24 h ([1]; pH 1, room temperature)","Solubility at 24 h ([1]; pH 2, room temperature)","Solubility at 24 h ([1]; pH 3, room temperature)","Solubility at 24 h ([1]; pH 5, room temperature)","Solubility at 24 h ([1]; pH 6.5, room temperature)","Solubility at 24 h ([1]; pH 7.4, room temperature)"
"O=P(O)(O)NS(=O)(=O)c1cncc(-c2nc(NCc3ccccn3)c3c(-c4ccccc4)cccc3n2)c1 [Compound 2, 5-(5-Phenyl-4-(pyridin-2-ylmethylamino)quinazolin-2-yl)pyridin-3-ylsulfonylphosphoramidic acid]",–,–,–,–,–,–,–,0.25 mg/mL,0.03 mg/mL,0.01 mg/mL,0.002 mg/mL,0.11 mg/mL,0.56 mg/mL
"O=P(O)(O)NS(=O)(=O)c1cncc(-c2nc(NCc3ccccn3)c3c(-c4ccccc4)cccc3n2)c1 [Compound 5, Tris-(5-(5-phenyl-4-((pyridin-2-ylmethyl)amino)quinazolin-2-yl)pyridin-3-yl)sulfonylphosphoramidate]",–,–,–,–,–,–,–,1.62 mg/mL,0.08 mg/mL,0.03 mg/mL,0.022 mg/mL,2.023 mg/mL,2.514 mg/mL
"O=P(O)(O)NS(=O)(=O)c1cncc(-c2nc(NCc3ccccn3)c3c(-c4ccccc4)cccc3n2)c1 [Compound 7, Calcium (5-(5-phenyl-4-((pyridin-2-ylmethyl)amino)quinazolin-2-yl)pyridin-3-yl)sulfonylphosphoramidate]",–,–,–,–,–,–,–,0.99 mg/mL,0.12 mg/mL,0.02 mg/mL,0.07 mg/mL,1.15 mg/mL,2.41 mg/mL
O=P(O)(O)N(P(=O)(O)O)S(=O)(=O)c1cncc(-c2nc(NCc3ccccn3)c3c(-c4ccccc4)cccc3n2)c1 [Compound 10],> 1.74 mg/mL,> 4.05 mg/mL,> 2.11 mg/mL,> 5.12 mg/mL,> 4.58 mg/mL,> 1.99 mg/mL,–,–,–,–,–,–,–

# The next lines start with the values.
"Solubility at 24 h [1, 3]","Solubility at 24 h [1, 4]","Solubility at 24 h [1, 5]","Solubility at 24 h [1, 6]","Solubility at 24 h [1, 7]","Solubility at 24 h [1, 8]",IC50 [2],"Solubility at 24 h ([1]; pH 1, room temperature)","Solubility at 24 h ([1]; pH 2, room temperature)","Solubility at 24 h ([1]; pH 3, room temperature)","Solubility at 24 h ([1]; pH 5, room temperature)","Solubility at 24 h ([1]; pH 6.5, room temperature)","Solubility at 24 h ([1]; pH 7.4, room temperature)",SMILES
6.4 mg/mL,0.41 mg/mL,< 0.001 mg/mL,< 0.001 mg/mL,< 0.001 mg/mL,< 0.001 mg/mL,46 nM,–,–,–,–,–,–,"NS(=O)(=O)c1cncc(-c2nc(NCc3ccccn3)c3c(-c4ccccc4)cccc3n2)c1 [Compound 1, 5-(5-phenyl-4-((pyridin-2-ylmethyl)amino)quinazolin-2-yl)pyridine-3-sulfonamide, reference compound]"
–,–,–,–,–,–,–,0.75 mg/mL,0.11 mg/mL,0.02 mg/mL,0.15 mg/mL,4.62 mg/mL,7.3 mg/mL,"O=P(O)(O)NS(=O)(=O)c1cncc(-c2nc(NCc3ccccn3)c3c(-c4ccccc4)cccc3n2)c1 [Compound 3, Trisodium (5-(5-phenyl-4-((pyridin-2-ylmethyl)amino)quinazolin-2-yl)pyridin-3-yl)sulfonylphosphoramidate]"
–,–,–,–,–,–,–,0.29 mg/mL,0.09 mg/mL,0.07 mg/mL,0.25 mg/mL,0.3 mg/mL,>1.07 mg/mL,"O=P(O)(O)NS(=O)(=O)c1cncc(-c2nc(NCc3ccccn3)c3c(-c4ccccc4)cccc3n2)c1 [Compound 6, Tripotassium (5-(5-phenyl-4-((pyridin-2-ylmethyl)amino)quinazolin-2-yl)pyridin-3-yl)sulfonylphosphoramidate]"
–,–,–,–,–,–,–,0.6 mg/mL,0.02 mg/mL,0.02 mg/mL,0.03 mg/mL,0.16 mg/mL,0.19 mg/mL,"O=P(O)(O)NS(=O)(=O)c1cncc(-c2nc(NCc3ccccn3)c3c(-c4ccccc4)cccc3n2)c1 [Compound 8, Magnesium (5-(5-phenyl-4-((pyridin-2-ylmethyl)amino)quinazolin-2-yl)pyridin-3-yl)sulfonylphosphoramidate]"
